Results: the supplement of paper PMC9780213

How the values were obtained:
Conditions in all cases: treatment time: 24 h
U2OS-LMNB1-TUBA1B-ACTB = assay: cell count relative to DMSO control (panel C1, DRAQ5/ER stain) (fraction of control); higher = more cells (less toxicity)
Procedure: (§1)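 U2OS-derived cells in 384-well plates were treated for 24 h with a 7-point 2-fold dilution series (top dose 20 µM for most compounds; final max DMSO 1%), then fixed, stained in four marker panels and imaged on a Cellomics ArrayScan. Cell count per treatment (three replicate plates merged) is given as a fraction of DMSO control. Panel A used parental U2OS, panel B U2OS-mOrange2-Peroxisome, panel C1 U2OS-LMNB1-TUBA1B-ACTB (DRAQ5 nuclei).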

U2OS-mOrange2-Peroxisome = assay: cell count relative to DMSO control (panel B, lysosome/peroxisome/lipid stain) (fraction of control); higher = more cells (less toxicity)
Procedure: as §1

U2OS = assay: cell count relative to DMSO control (panel A, nuclei/RNA/PMG/mitochondria stain) (fraction of control); higher = more cells (less toxicity)
Procedure: as §1

SMILES | cell count (U2OS-LMNB1-TUBA1B-ACTB; 0.07812 µM) | cell count (U2OS-LMNB1-TUBA1B-ACTB; 0.15625 µM) | cell count (U2OS-LMNB1-TUBA1B-ACTB; 0.3125 µM) | cell count (U2OS-LMNB1-TUBA1B-ACTB; 0.625 µM) | cell count (U2OS-LMNB1-TUBA1B-ACTB; 1.25 µM) | cell count (U2OS-LMNB1-TUBA1B-ACTB; 2.5 µM) | cell count (U2OS-LMNB1-TUBA1B-ACTB; 5 µM) | cell count (U2OS-mOrange2-Peroxisome; 0.07812 µM) | cell count (U2OS-mOrange2-Peroxisome; 0.15625 µM) | cell count (U2OS-mOrange2-Peroxisome; 0.3125 µM) | cell count (U2OS-mOrange2-Peroxisome; 0.625 µM) | cell count (U2OS-mOrange2-Peroxisome; 1.25 µM) | cell count (U2OS-mOrange2-Peroxisome; 2.5 µM) | cell count (U2OS-mOrange2-Peroxisome; 5 µM) | cell count (U2OS; 0.07812 µM) | cell count (U2OS; 0.15625 µM) | cell count (U2OS; 0.3125 µM) | cell count (U2OS; 0.625 µM) | cell count (U2OS; 1.25 µM) | cell count (U2OS; 2.5 µM) | cell count (U2OS; 5 µM) | cell count (U2OS-LMNB1-TUBA1B-ACTB; 10 µM) | cell count (U2OS-LMNB1-TUBA1B-ACTB; 20 µM) | cell count (U2OS-mOrange2-Peroxisome; 10 µM) | cell count (U2OS-mOrange2-Peroxisome; 20 µM) | cell count (U2OS; 10 µM) | cell count (U2OS; 20 µM)
COc1cccc2c1C(=O)c1c(O)c3c(c(O)c1C2=O)C[C@@](O)(C(=O)CO)C[C@@H]3O[C@H]1C[C@H](N)[C@H](O)[C@H](C)O1 [doxorubicin] | 1.08 | 1.17 | 1.12 | 1.23 | 0.925 | 0.807 | 0.624 | 0.712 | 0.735 | 0.747 | 0.899 | 0.86 | 1.1 | 0.37 | 0.933 | 1.03 | 0.932 | 0.836 | 0.84 | 0.754 | 0.34 | – | – | – | – | – | –
O=C(N/N=C/c1ccc(O)c(O)c1)c1cc2ccccc2cc1O [dynasore] | – | – | 1.02 | 1.05 | 1.06 | 1.12 | 0.953 | – | – | 0.779 | 0.85 | 0.742 | 1.03 | 0.645 | – | – | 0.981 | 1.01 | 0.925 | 1.02 | 0.867 | 0.966 | 0.826 | 0.497 | 0.501 | 0.807 | 0.638
CCCCCCCC(=O)N[C@H](CN1CCCC1)[C@H](O)c1ccc2c(c1)OCCO2 [eliglustat] | – | – | 1.08 | 1.13 | 1.13 | 1.08 | 1.09 | – | – | 1.25 | 0.795 | 0.804 | 0.767 | 0.889 | – | – | 0.927 | 0.977 | 0.988 | 1.01 | 1.1 | 1.07 | 1.02 | 0.945 | 1.12 | 1.01 | 0.973
CC[C@H]1CN2CCc3cc(OC)c(OC)cc3[C@@H]2C[C@@H]1C[C@H]1NCCc2cc(OC)c(OC)cc21 [emetine] | – | – | 1.11 | 1.08 | 1 | 1.06 | 1.02 | – | – | 1.04 | 1.29 | 1.13 | 1.04 | 1.06 | – | – | 1.08 | 1.01 | 1.01 | 0.994 | 1.02 | 0.916 | 0.899 | 1.15 | 1.08 | 1.05 | 0.753
